In this assay the target is Acrosin (Homo sapiens, UniProt P10323). As to the kind of experiment: Inhibition of human acrosin using N-alpha-benzoyl-DL-arginine para-nitroanilide-HCl as substrate after 3 hrs by spectrophotometry.
Chain of Acrosin (P10323 20-42 limits assumed): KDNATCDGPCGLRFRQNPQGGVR
Chain of Acrosin (P10323 43-343 limits assumed): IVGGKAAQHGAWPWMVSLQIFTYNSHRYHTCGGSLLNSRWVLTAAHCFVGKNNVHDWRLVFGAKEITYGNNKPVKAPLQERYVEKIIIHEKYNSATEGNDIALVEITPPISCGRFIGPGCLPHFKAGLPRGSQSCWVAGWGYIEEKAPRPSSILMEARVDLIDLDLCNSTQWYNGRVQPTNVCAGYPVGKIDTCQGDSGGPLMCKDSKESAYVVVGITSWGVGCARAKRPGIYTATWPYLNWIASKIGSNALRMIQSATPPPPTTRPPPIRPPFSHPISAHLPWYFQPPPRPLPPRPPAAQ

A word on the IC50: it is the midpoint of a concentration-inhibition curve. A low value points to greater potency. Molecule `CCOC(=O)c1cc(-c2ccc(NC(=O)CCCl)cc2)[nH]n1` came in with an IC50 of 5.76 mM.
Molecule `CCOC(=O)c1cc(-c2ccc(NC(=O)c3ccccc3Cl)cc2)n[nH]1` came in with an IC50 of 0.11 mM.
`CCOC(=O)c1cc(-c2ccc(NC(=O)c3ccccc3Br)cc2)n[nH]1` displayed an IC50 of 2.4 mM.
`CCOC(=O)c1cc(-c2ccc(NC(=O)C(F)(F)F)cc2)[nH]n1`: half-maximal inhibition (IC50) required 7.9 mM.
Regarding `CCOC(=O)c1cc(-c2ccc(NC(=O)c3ccc(Cl)cc3)cc2)n[nH]1`, half-maximal inhibition (IC50) was put at 3.31 mM. Compared with the last molecule, the IC50 is about 2.4-fold lower.
Under `CCCC(=O)Nc1ccc(-c2cc(C(=O)OCC)[nH]n2)cc1` stands 17 mM; under `CCOC(=O)c1cc(-c2ccc(NC(=O)CC)cc2)[nH]n1`, 14 mM; under `CCOC(=O)c1cc(-c2ccc(NC(=O)C(CC)c3ccccc3)cc2)n[nH]1` (configuration not stated), 3.3 mM.
`CCOC(=O)c1cc(-c2ccc(NC(=O)c3ccc(Cl)cc3Cl)cc2)[nH]n1` gave an IC50 of 0.44 mM.
For `CCOC(=O)c1cc(-c2ccc(NC(=O)c3ccc(OC)cc3)cc2)n[nH]1`, it took 0.8 mM to reach half-maximal inhibition (IC50).
Consider `CCOC(=O)c1cc(-c2ccc(NC(=O)c3ccc(C)cc3)cc2)n[nH]1`, for which half-maximal inhibition (IC50) required 34.6 mM.
On to `CCCCC(=O)Nc1ccc(-c2cc(C(=O)OCC)n[nH]2)cc1`, for which half-maximal inhibition (IC50) was put at 72 mM.
The molecule `CCOC(=O)c1cc(-c2ccc(NC(=O)c3c(Cl)cccc3Cl)cc2)n[nH]1` yielded an IC50 of 4.8 mM.
Molecule `CCOC(=O)c1cc(-c2ccc(NC(=O)Cc3ccccc3)cc2)[nH]n1` showed an IC50 of 0.47 mM.
As for `CCOC(=O)c1cc(-c2ccc(NS(=O)(=O)c3ccc(C)cc3)cc2)[nH]n1`, the IC50 worked out at 0.032 mM.
The figure for `CCOC(=O)c1cc(-c2ccc(NC(C)=O)cc2)[nH]n1` is 23 mM; for `CCOC(=O)c1cc(-c2ccc(NC(=O)c3ccc(F)cc3)cc2)[nH]n1` it is 2.4 mM; for `CCOC(=O)c1cc(-c2ccc(NC(=O)c3ccc(CCl)cc3)cc2)n[nH]1` it is 3.31 mM.
For the molecule `CCOC(=O)c1cc(-c2ccc(NC(=O)c3c(F)cccc3F)cc2)[nH]n1`, half-maximal inhibition (IC50) required 3.98 mM.
The molecule `CCOC(=O)c1cc(-c2ccc(NC(=O)c3ccccc3)cc2)n[nH]1` came in with an IC50 of 8 mM.
On to `CCOC(=O)c1cc(-c2ccc(NC(=O)CCCC(=O)O)cc2)n[nH]1`, for which the IC50 came out at 17.4 mM.
Consider `CCOC(=O)c1cc(-c2ccc(NC(=O)CCC(=O)O)cc2)[nH]n1`, for which the IC50 amounted to 9.25 mM.

For the origin of these results see BindingDB's records for doi:10.1016/j.bmcl.2011.07.110 (Second Military Medical University, 2011).
